Here are results for 15 molecules from patent US7960427B2, “5-hydroxyindole-3-carboxylate derivatives and uses thereof” (priority 2004, dated 2011).

One data set relates to HBV DNA. The data set can be described thus: In vitro anti-HBV activity: replication of HBV DNA in 2.2.15 cells (dot hybridization). As to conditions: for IC50: Hepatitis B virus, read-out: DNA replication IC50; for DNA replication SI: selectivity index. Type of data set: cell-based, Hepatitis B virus (HBV). As to the method:
(§1) All compounds were evaluated for their anti-HBV activities, namely the ability to inhibit the replication of HBV DNA and the production of HBsAg and HBeAg in HBV-infected 2.2.15 cells.
(§2) The samples were dissolved in DMSO for appropriate concentrations, and then each was diluted 3-fold with culture medium. The 2.2.15 cells were planted into 96-well culture plates. […] The culture supernatants and 2.2.15 cells were collected respectively on the 8th plant day. The secretion concentrations of HBsAg and HBeAg in the culture supernatants were measured by RIA on SPRIA Kit for Detection of HBsAg and HBeAg (Beijing North Institute of Biological Technology), and the replication of HBV DNA was measured by dot hybridization with a^32PdCTP (FuRui Biological Technology Ltd., China).

The next data set relates to HBsAg. The data set can be described thus: In vitro anti-HBV activity: HBsAg production in HBV-infected 2.2.15 cells (RIA). Type of data set: cell-based, Hepatitis B virus (HBV). As to conditions: for IC50: Hepatitis B virus, read-out: HBsAg IC50; for HBsAg SI: selectivity index. The protocol:
as §1, §2

The subject of a further data set is 2.2.15 cells. The data set can be described thus: Cytotoxicity (TC50) in 2.2.15 cells. It is filed as cell-based. As to the method: as §1, §2
The target in a further data set is T1, HIV-1 protease (Human immunodeficiency virus type 1 group M subtype B, UniProt P04585).
T1 construct: The genetically engineered target enzyme (HIV-1 protease, preserved at −85° C.)
The data set can be described thus: Anti-HIV-1 protease activity (fluorescence labeled substrate). As to conditions: for inhibition ratio at 0.5 ug/ml: sample concentration 0.5 ug/ml; for inhibition ratio at 2.0 ug/ml: sample concentration 2.0 ug/ml; for inhibition ratio at 10 ug/ml: sample concentration 10 ug/ml; for inhibition ratio at 50 ug/ml: sample concentration 50 ug/ml; for inhibition ratio at 250 ug/ml: sample concentration 250 ug/ml. It is filed as biochemical. As to the method:
HIV-1 protease can cut the fluorescence labeled substrate under optimal condition and reaction system, so the activity of enzyme is determined by the fluorescence in the product of enzymatic reaction. The samples are added into the reaction system to observe the inhibitive effect on the enzyme.
The samples and the reference drug Indinavir ([…].) were dissolved in DMSO or redistilled water for appropriate concentration. Each was diluted 5-fold and then added into the buffer containing fluorescence labeled substrate (MP Co.). The genetically engineered target enzyme (HIV-1 protease, preserved at −85° C.) was added to the buffer and incubated under the optimal reaction condition. The fluorescence was determined by FLUO star Galaxy fluorometer.

The subject of data set [1] is influenza A virus, strain A/jifang/90-15. The data set can be described thus: microbe, parasite or virus in culture. The note with it: Influenza strain A/jifang/90-15, MDCK cells, CPE, Reed-Muench. It is filed as cell-based.

Values after ≈ are worked out from the molar mass of the structure shown. Counter-ions that a name gives are not always drawn.

In the case of `CCOC(=O)c1c(C[S+]([O-])Cc2cscn2)n(C2CC2)c2cc(Br)c(O)c(CN(C)C)c12` (stereo not drawn) [Example 52, Ethyl 6-bromo-1-cyclopropyl-4-[(dimethylamino)methyl]-5-hydroxy-2-[(4-thiazolylmethyl)sulfinylmethyl]-1H-indole-3-carboxylate dihydrochloride], in the data set on HBV DNA, the IC50 is 3.51 µg/mL and the “DNA replication SI” value came to 18.27. In the data set on HBsAg, the IC50 was 4.79 µg/mL and the “HBsAg SI” value amounted to 13.39. The molecule further returned a TC50 in the data set on 2.2.15 cells of 64.15 µg/mL.
As for `CCOC(=O)c1c(C[S+]([O-])c2ccccc2C)n(C)c2cc(Br)c(O)c(CN3CCOCC3)c12` (stereo not drawn) [Example 57, Ethyl 6-bromo-5-hydroxy-1-methyl-4-(morpholinomethyl)-2-[(2-methylphenyl)sulfinylmethyl]-1H-indole-3-carboxylate], on HIV-1 protease, the “inhibition ratio at 0.5 ug/ml” value worked out at 6.4, the “inhibition ratio at 2.0 ug/ml” value is given as 9.2, the “inhibition ratio at 10 ug/ml” value is given as 1.9 and the “inhibition ratio at 50 ug/ml” value is listed as 15.5. Besides, the “inhibition ratio at 250 ug/ml” value on HIV-1 protease was determined as 41.0. In addition, in the data set on HBV DNA, the IC50 stood at 17 µg/mL (≈ 30.9 µM) and the “DNA replication SI” value came to 3.03. For the same molecule, the TC50 in the data set with 2.2.15 cells came out at 51.53 µg/mL (≈ 93.8 µM).
Regarding `CCOC(=O)c1c(C[S+]([O-])c2ccc(F)cc2)n(C)c2cc(Br)c(O)c(CN3CCOCC3)c12` (stereo not drawn) [Example 58, Ethyl 6-bromo-5-hydroxy-1-methyl-4-(morpholinomethyl)-2-[(4-fluorophenyl)sulfinylmethyl]-1H-indole-3-carboxylate], on HIV-1 protease, the “inhibition ratio at 0.5 ug/ml” value came to 11.7, the “inhibition ratio at 2.0 ug/ml” value is reported as 11.6, the “inhibition ratio at 10 ug/ml” value was found to be 15.9 and the “inhibition ratio at 50 ug/ml” value is given as 22.9. Also, the “inhibition ratio at 250 ug/ml” value on HIV-1 protease was 37.4. In addition, in the data set with HBV DNA, the IC50 was 57.6 µg/mL (≈ 104 µM) and the “DNA replication SI” value is over 8.7. Moreover, the TC50 in the data set with 2.2.15 cells was over 500 µg/mL.
On to `CCOC(=O)c1c(C[S+]([O-])c2ccc(F)c(F)c2)n(C2CC2)c2cc(Br)c(O)c(CN3CCN(C)CC3)c12` (stereo not drawn) [Example 67, Ethyl 6-bromo-1-cyclopropyl-5-hydroxy-4-[(4-methyl-1-piperazinyl)methyl]-2-[(3,4-difluorophenyl)sulfinylmethyl]-1H-indole-3-carboxylate dihydrochloride], for which, at HIV-1 protease, the “inhibition ratio at 0.5 ug/ml” value is reported as 3.2, the “inhibition ratio at 2.0 ug/ml” value stood at 10.5, the “inhibition ratio at 10 ug/ml” value worked out at 9.4 and the “inhibition ratio at 50 ug/ml” value turned out to be 0.5. In addition, at HIV-1 protease, the “inhibition ratio at 250 ug/ml” value was 19.3. Besides, in the data set with HBV DNA, the IC50 came out at 5.4 µg/mL and the “DNA replication SI” value stood at 6.35. In addition, in the data set on 2.2.15 cells, the TC50 was 34.35 µg/mL.
Regarding `CCOC(=O)c1c(C[S+]([O-])Cc2ccco2)n(C)c2cc(Br)c(O)c(CN3CCCC3)c12` (stereo not drawn) [Example 71, Ethyl 6-bromo-5-hydroxy-1-methyl-4-(1-pyrrolidinylmethyl)-2-[(2-furylmethyl)sulfinylmethyl]-1H-indole-3-carboxylate], in the data set on HBV DNA, the IC50 turned out to be 23.9 µg/mL (≈ 45.6 µM) and the “DNA replication SI” value worked out at 1.60. In addition, in the data set on HBsAg, the IC50 amounted to 18.4 µg/mL (≈ 35.1 µM) and the “HBsAg SI” value is on record as 2.09. Moreover, the TC50 in the data set with 2.2.15 cells was 38.32 µg/mL (≈ 73.2 µM).
On to `CCOC(=O)c1c(C[S+]([O-])c2ccc(C(F)(F)F)cc2)n(C2CC2)c2cc(Br)c(O)c(CN(C)C)c12` (stereo not drawn) [Example 79, Ethyl 6-bromo-1-cyclopropyl-4-[(dimethylamino)methyl]-5-hydroxy-2-[(4-trifluoromethylphenyl)sulfinylmethyl]-1H-indole-3-carboxylate], for which, in the data set on HBV DNA, the IC50 was 4.47 µg/mL (≈ 7.61 µM) and the “DNA replication SI” value is 3.83. Also, in the data set on HBsAg, the IC50 stood at 6.3 µg/mL (≈ 10.7 µM) and the “HBsAg SI” value turned out to be 2.72. In the data set on 2.2.15 cells, this molecule yielded a TC50 of 17.12 µg/mL (≈ 29.1 µM).
For `CCOC(=O)c1c(CS(=O)(=O)c2ccc(C(F)(F)F)cc2)n(C)c2cc(Br)c(O)c(CN3CCCC3)c12` [Example 82, Ethyl 6-bromo-5-hydroxy-1-methyl-4-(1-pyrrolidinylmethyl)-2-[(4-trifluoromethylphenyl)sulfonylmethyl]-1H-indole-3-carboxylate], in that order: 6.1 µg/mL (≈ 10.1 µM), 2.34, 7.83 µg/mL (≈ 13 µM), 1.82 and 14.25 µg/mL (≈ 23.6 µM).
Regarding `CCOC(=O)c1c(CS(=O)(=O)c2cccc(C(F)(F)F)c2)n(C2CC2)c2cc(Br)c(O)c(CN3CCCC3)c12` [Example 83, Ethyl 6-bromo-1-cyclopropyl-5-hydroxy-4-(1-pyrrolidinylmethyl)-2-[(3-trifluoromethylphenyl)sulfonylmethyl]-1H-indole-3-carboxylate], in the data set with HBV DNA, the IC50 turned out to be 6.38 µg/mL (≈ 10.1 µM) and the “DNA replication SI” value stood at 5.58. Further, in the data set on HBsAg, the IC50 was 18.3 µg/mL (≈ 29.1 µM) and the “HBsAg SI” value amounted to 1.94. This molecule also displayed a TC50 in the data set on 2.2.15 cells of 35.61 µg/mL (≈ 56.6 µM).
`CCOC(=O)c1c(CSc2nc3ccccc3[nH]2)n(C)c2cc(Br)c(O)c(Cn3ccnc3)c12.Cl` [Example 94, Ethyl 6-bromo-5-hydroxy-4-[(1-imidazolyl)methyl]-1-methyl-2-[(benzo[d]imidazol-2-yl)thiomethyl]-1H-indole-3-carboxylate hydrochloride]: in the data set with HBsAg, the IC50 is 7.37 µg/mL and the “HBsAg SI” value was found to be 7.25. Moreover, the TC50 in the data set with 2.2.15 cells turned out to be 53.42 µg/mL.
Take `CCOC(=O)c1c(C[S+]([O-])c2ccccc2)n(C)c2cc(Br)c(O)c(Cn3ccnc3)c12` (stereo not drawn) [Example 116, Ethyl 6-bromo-5-hydroxy-4-[(1-imidazolyl)methyl]-1-methyl-2-(phenylsulfinylmethyl)-1H-indole-3-carboxylate]: at HIV-1 protease, the “inhibition ratio at 0.5 ug/ml” value was determined as 0.4, the “inhibition ratio at 2.0 ug/ml” value is −2.4, the “inhibition ratio at 10 ug/ml” value is on record as −1.5 and the “inhibition ratio at 50 ug/ml” value is given as 11.1. The “inhibition ratio at 250 ug/ml” value at HIV-1 protease was found to be 37.5. Further, in the data set on HBV DNA, the IC50 stood at 2.56 µg/mL (≈ 4.96 µM) and the “DNA replication SI” value was found to be 3.17. In the data set on 2.2.15 cells, this molecule yielded a TC50 of 8.12 µg/mL (≈ 15.7 µM).
For the molecule `CCOC(=O)c1c(C[S+]([O-])c2ccc(F)cc2)n(C)c2cc(Br)c(O)c(Cn3ccnc3)c12` (stereo not drawn) [Example 122, Ethyl 6-bromo-5-hydroxy-4-[(1-imidazolyl)methyl]-1-methyl-2-[(4-fluorophenyl)sulfinylmethyl]-1H-indole-3-carboxylate], in the data set with HBV DNA, the IC50 is 13.6 µg/mL (≈ 25.5 µM) and the “DNA replication SI” value was determined as 3.54. Besides, in the data set with HBsAg, the IC50 is 11.4 µg/mL (≈ 21.3 µM) and the “HBsAg SI” value is 4.23. Further, the TC50 in the data set with 2.2.15 cells was 48.1 µg/mL (≈ 90 µM).
Regarding `CCOC(=O)c1c(C[S+]([O-])c2ccc(F)cc2)n(C2CC2)c2cc(Br)c(O)c(Cn3ccnc3C)c12` (stereo not drawn) [Example 138, Ethyl 6-bromo-1-cyclopropyl-5-hydroxy-4-[(2-methyl-1-imidazolyl)methyl]-2-[(4-fluorophenyl)sulfinylmethyl]-1H-indole-3-carboxylate], on HIV-1 protease, the IC50 was 111 µM, the “inhibition ratio at 0.5 ug/ml” value is on record as 6.8, the “inhibition ratio at 2.0 ug/ml” value is −2.3 and the “inhibition ratio at 10 ug/ml” value was found to be 6.4. Moreover, at HIV-1 protease, the “inhibition ratio at 50 ug/ml” value is recorded as 12.7 and the “inhibition ratio at 250 ug/ml” value was found to be 75.7. In addition, in the data set with HBV DNA, the IC50 came out at 5 µg/mL (≈ 8.7 µM) and the “DNA replication SI” value stood at 3.74. The molecule also gave a TC50 in the data set on 2.2.15 cells of 18.52 µg/mL (≈ 32.2 µM).
`CCOC(=O)c1c(C[S+]([O-])c2ccc(F)cc2)n(C2CC2)c2cc(Br)c(O)c(CNC(=N)N)c12` (stereo not drawn) [Example 154, Ethyl 6-bromo-1-cyclopropyl-4-(guanidinylmethyl)-5-hydroxy-2-[(4-fluorophenyl)sulfinylmethyl]-1H-indole-3-carboxylate]: on HIV-1 protease, the IC50 was 43.5 µM, the “inhibition ratio at 0.5 ug/ml” value is on record as 3.2, the “inhibition ratio at 2.0 ug/ml” value was 13.2 and the “inhibition ratio at 10 ug/ml” value turned out to be 4.8. Further, on HIV-1 protease, the “inhibition ratio at 50 ug/ml” value is 19.8 and the “inhibition ratio at 250 ug/ml” value was determined as 109.3. Further, in the data set on HBV DNA, the IC50 stood at 5.2 µg/mL (≈ 9.43 µM) and the “DNA replication SI” value is on record as 3.63. Further, the TC50 in the data set with 2.2.15 cells was 18.52 µg/mL (≈ 33.6 µM).
Regarding `CCOC(=O)c1c(CSc2nc3ccccc3[nH]2)n(C)c2cc(Br)c(O)c(Cn3ccnc3C)c12.Cl` [Example 181, Ethyl 6-bromo-5-hydroxy-1-methyl-4-[(2-methyl-1-imidazolyl)methyl]-2-[(benzo[d]imidazol-2-yl)thiomethyl]-1H-indole-3-carboxylate hydrochloride], in the data set with HBsAg, the IC50 stood at 1.55 µg/mL and the “HBsAg SI” value was found to be 13.79. Also, the TC50 in the data set with 2.2.15 cells was 21.38 µg/mL.
In data set [1], `NC(=O)c1ncn([C@@H]2O[C@H](CO)[C@@H](O)[C@H]2O)n1` [Ribovirin, reference compound] showed an IC50 of over 33.81 µg/mL.

Usually IC50 stands for the midpoint of a concentration-inhibition curve.
